Measurements from US20040138169A1, “Composition and use of substances for stabilising amino acids containing sulphur” (priority 2001, published 2004).
Entries after “also recorded” stand apart in the source; their conditions may differ.

What was measured:
[1] = system: sulphur-containing amino acids (HCY, CYS, CYSGLY, GLU) in whole blood; experiment: Stabilization of sulphur-containing amino acids (HCY, CYS, CYSGLY, GLU) together in whole blood samples; assay type: cell-based; conditions: substance used alone, samples at room temperature
Procedure: (§1) Material Used and Processes
(§2) The following inhibitors of methyl transferase or S-adenosylhomocysteine hydrolase have been tested
(§3) The effectiveness of the inhibitors have been tested in combination with the following acids:
(§4) The compositions of further reagents have been:
(§5) Mixture A: 5(4)-AMCA (5.2 mg) and DEOA (3.2 mg), dissolved in 500 μl phosphate buffer.
(§6) Composition of the buffer for mixture A:
(§7) All other substances have been dissolved in water.
(§8) Blood Withdrawal and Treatment of Samples
(§9) Corresponding amounts of stabilizers have been provided in EDTA- or Na-heparin-monovettes for each Example or Comparative Example (see Table 1). The blood withdrawal has been carried out in monovettes with and without stabilizers. For the control value, the monovettes have been centrifuged within 30 minutes after withdrawal.

[2] = system: HCY-concentration in whole blood; experiment: Stabilization of the homocysteine (HCY) concentration in withdrawn whole blood stored in monovettes with stabilizer; assay type: cell-based; conditions: room temperature; for HCY-SD (duration of stabilization): whole blood in EDTA- or Na-heparin-monovettes with stabilizer (amount per ml blood); for stabilization of homocysteine (duration): whole blood
Procedure: as §1, §2, §3, §4, §5, §6, §7, §8, §9

[3] = system: homocysteine level in blood; conditions: cited from earlier work
[4] = system: concentration of cysteine (CYS) in whole blood; experiment: Stabilization of the cysteine (CYS) concentration in withdrawn whole blood stored in monovettes with stabilizer; assay type: cell-based; conditions: whole blood in EDTA- or Na-heparin-monovettes with stabilizer (amount per ml blood), room temperature
Procedure: as §1, §2, §3, §4, §5, §6, §7, §8, §9

[5] = system: concentration of cysteinyl glycine (CYSGLY) in whole blood; experiment: Stabilization of the cysteinyl glycine (CYSGLY) concentration in withdrawn whole blood stored in monovettes with stabilizer; assay type: cell-based
Procedure: as §1, §2, §3, §4, §5, §6, §7, §8, §9

[6] = system: concentration of glutathione (GLU) in whole blood; experiment: Stabilization of the glutathione (GLU) concentration in withdrawn whole blood stored in monovettes with stabilizer; assay type: cell-based
Procedure: as §1, §2, §3, §4, §5, §6, §7, §8, §9

[7] = Storage stability of the reagent; assay type: physicochemical; conditions: can be stored only in cooled state (+4° C.)
Procedure: A problem which occurs when using 3-deazaadenosine resides in that noticable variations of the measured values occur, lying in the range of up to 2 μmol/l in 60 hours with homocysteine and in the range of up to 60 μmol/l in 60 hours with cysteine. […] A further problem resides in that 3-deazaadenosine is not stable at room temperature and can be stored only in cooled state (+4° C.), which limits also its shipment capabilities. However, a simple handling of the reagents is of great importance in the diagnostic medicine, because for example withdrawn blood must be present in an unmodified form and transportable over an extended period without larger expenditure like, for example, cooling.

Structure (SMILES) | stabilization of the sulphur-containing amino acids (in words) [1] | HCY-SD (duration of stabilization) [2] | CYS-SD (duration of stabilization) [4] | further results
Nc1ncnc2c1ncn2[C@H]1C[C@H](O)[C@@H](CO)O1 [2′-deoxyadenosin] | no significant stabilization | – | – | –
O=C(O)CN(CCN(CC(=O)O)CC(=O)O)CC(=O)O [Na-EDTA, ethylenediamine tetraacetic acid] | no stabilization | – | – | –
Nc1ncnc2c1ncn2[C@@H]1C=C(CO)[C@@H](O)[C@H]1O [Ex. 13, neplanocin A] | – | 70 h | – | –
[F-].[Na+] [NaF] | – | – | – | change of the homocysteine level in blood samples (in words) ([3]; in comparison with the initial value at the time of withdrawing the blood): no increase; also recorded: decrease
O=C1O[C@H]([C@@H](O)CO)C(O)=C1O [Cmp.-Ex. 2, ascorbic acid] | – | 73 h | 73 h | CYSGLY-SD (duration of stabilization) ([5]; whole blood in EDTA- or Na-heparin-monovettes with stabilizer (amount per ml blood), room temperature): 73 h
NC(=O)c1nc[nH]c1N [5(4)-aminoimidazol-4(5)-carboxamid, 5(4)-aminoimidazol-4(5)-carboxamide] | no significant stabilization | – | – | –
O=C(O)CC(O)(CC(=O)O)C(=O)O [citric acid] | no stabilization | – | – | –
Nc1nccc2c1ncn2[C@@H]1C=C(CO)[C@@H](O)[C@H]1O [Ex. 14, 3-deazaneplanocin A] | – | 143 h | – | stabilization of homocysteine (duration) [2]: at least 143 hours; stabilization of homocysteine (duration) ([2]; listed as 3DA-NeplA): 143 h
Nc1nccc2c1ncn2[C@@H]1O[C@H](CO)[C@@H](O)[C@H]1O [Cmp.-Ex. 1, 3-deazaadenosin] | – | 56 h | 56 h | inhibition of the formation of glutathione (in words) [6]: does not inhibit; stability of the reagent at room temperature (in words) [7]: not stable; increase of the homocysteine level ([3]; 72 hours after the blood withdrawal): about 10%; time over which the reaction from S-adenosylhomocysteine to homocysteine is effectively inhibited ([3]; blood samples): up to 72 hours; time without increase of the homocysteine level in blood ([3]; blood samples): up to 24 hours; inhibition of the formation of cysteinyl glycine (in words) [5]: does not inhibit
O=C(O)/C=C/C(=O)O [Cmp.-Ex. 3, fumaric acid] | – | 47 h | 47 h | –
